Measurements reported in ChEMBL document CHEMBL5380790 (J Med Chem, 2023).
pIC50: −log10 of the molar value. Values after ≈ are worked out from the molar mass of the structure shown. Active and inactive are the calls of the source. The calls are words filed in the database; no cut-off is given here.

Columns and labels:
[1] = test system: Mast/stem cell growth factor receptor Kit (Homo sapiens), P10721 [V559D]; test: Inhibition of recombinant human KIT V559D mutant in exon 11 using polyGT and ATP as substrate preincubated for 20 mins followed by substrate addition and measured after 240 mins by FRET assay; conditions: time 260.0 min
GIST-430/654 [2] = assay type: functional, organism-based; conditions: Homo sapiens, dose 35.0 mg/kg, route po, time 30.0 day
[3] = test system: Mast/stem cell growth factor receptor Kit (Homo sapiens), P10721 [V559A]; test: Inhibition of recombinant human KIT V559A mutant in exon 11 using polyGT and ATP as substrate preincubated for 20 mins followed by substrate addition and measured after 240 mins by FRET assay; conditions: time 260.0 min
Sequence of Mast/stem cell growth factor receptor Kit (Homo sapiens), P10721 [V559A] (P10721 whole entry V559A): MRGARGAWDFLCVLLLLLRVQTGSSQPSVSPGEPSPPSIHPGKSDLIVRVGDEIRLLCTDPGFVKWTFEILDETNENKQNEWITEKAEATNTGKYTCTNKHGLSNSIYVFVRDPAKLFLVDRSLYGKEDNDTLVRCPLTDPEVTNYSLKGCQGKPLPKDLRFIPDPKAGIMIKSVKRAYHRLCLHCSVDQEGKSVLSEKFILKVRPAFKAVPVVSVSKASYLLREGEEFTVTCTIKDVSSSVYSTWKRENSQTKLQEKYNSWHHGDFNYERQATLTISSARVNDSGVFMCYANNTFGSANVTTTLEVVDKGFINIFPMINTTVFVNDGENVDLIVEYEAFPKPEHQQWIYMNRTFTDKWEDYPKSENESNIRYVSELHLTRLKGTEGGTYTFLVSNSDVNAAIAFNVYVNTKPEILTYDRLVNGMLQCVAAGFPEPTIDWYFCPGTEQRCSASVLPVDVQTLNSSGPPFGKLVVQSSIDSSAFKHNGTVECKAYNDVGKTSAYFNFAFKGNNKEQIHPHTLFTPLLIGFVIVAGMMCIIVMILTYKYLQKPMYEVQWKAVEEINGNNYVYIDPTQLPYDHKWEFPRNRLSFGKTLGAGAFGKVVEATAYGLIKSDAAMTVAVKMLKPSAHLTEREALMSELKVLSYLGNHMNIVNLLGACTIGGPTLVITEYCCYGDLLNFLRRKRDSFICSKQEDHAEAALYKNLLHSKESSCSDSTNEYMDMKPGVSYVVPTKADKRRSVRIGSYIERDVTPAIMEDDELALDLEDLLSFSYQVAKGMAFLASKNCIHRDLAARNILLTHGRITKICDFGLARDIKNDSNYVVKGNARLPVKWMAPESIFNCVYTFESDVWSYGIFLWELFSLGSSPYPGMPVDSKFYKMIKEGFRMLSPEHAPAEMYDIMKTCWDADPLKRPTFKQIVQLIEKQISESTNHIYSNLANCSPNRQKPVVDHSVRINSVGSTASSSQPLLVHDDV

[4] = molecular target: T1, Tyrosine-protein kinase Lck (Homo sapiens, UniProt P06239); test: Inhibition of LCK (unknown origin) using 33P-ATP as substrate incubated for 120 mins by radiometric kinase assay
[5] = Solubility of compound in FaSSIF at pH 6.5; assay type: physicochemical
GIST-430/654 [6] = assay type: functional, organism-based; conditions: Homo sapiens, dose 10-35 mg/kg, route po, time 30.0 day
[7] = molecular target: T2, Mast/stem cell growth factor receptor Kit (Homo sapiens, UniProt P10721); test: Binding affinity to wild type human KIT in human HEK293 cells at 1 uM by NanoBRET assay; assay type: cell-based
Target sequence in this assay (P10721 whole entry): as the sequence (P10721 whole entry V559A) above, with A559V counted along it

[8] = molecular target: Mast/stem cell growth factor receptor Kit (Homo sapiens, UniProt P10721, DELTA560/V654A); assay type: cell-based, GIST-430/654
Sequence of Mast/stem cell growth factor receptor Kit (Homo sapiens, UniProt P10721, DELTA560/V654A) (P10721 whole entry, looked up, stated change not applied): as the sequence (P10721 whole entry V559A) above, with A559V counted along it

[9] = Oral bioavailability in CD-1 mouse at 10 mg/kg and measured upto 24 hrs; assay type: ADME, organism-based; conditions: in vivo
[10] = Volume of distribution at steady state in Cynomolgus monkey at 0.2 mg/kg, iv and measured upto 24 hrs; assay type: ADME, organism-based, Macaca fascicularis; conditions: in vivo, read-out: Vdss
[11] = molecular target: Receptor-type tyrosine-protein kinase FLT3 (Homo sapiens) (UniProt P36888); test: Inhibition of FLT3 (unknown origin) at 1 uM using 33P-ATP as substrate incubated for 120 mins by radiometric kinase assay
[12] = Efflux ratio of apparent permeability from basolateral to apical side over apical to basolateral side in human Caco-2 cells at 1 uM and measured after 2 hrs by LC-MS/MS analysis; assay type: ADME, cell-based
[13] = Plasma clearance in CD-1 mouse at 0.2 mg/kg, iv and measured upto 24 hrs; assay type: ADME, organism-based
[14] = test system: Mast/stem cell growth factor receptor Kit (Homo sapiens), P10721 [V560G]; test: Inhibition of recombinant human KIT V560G mutant in exon 11 using polyGT and ATP as substrate preincubated for 20 mins followed by substrate addition and measured after 240 mins by FRET assay; conditions: time 260.0 min
[15] = molecular target: hERG (KCNH2) potassium channel (Homo sapiens, UniProt Q12809); test: Inhibition of human ERG potassium channel transfected in HEK293 cells at holding potential -80 mV at 10 uM and measured for 5 mins by whole cell patch clamp assay; assay type: toxicity, cell-based; conditions: HEK293 cells transfected with hERG
[16] = Apparent passive permeability of compound in human Caco-2 cells at 1 uM and measured after 2 hrs by LC-MS/MS analysis; assay type: ADME, cell-based
[17] = molecular target: T2, Mast/stem cell growth factor receptor Kit; test: Inhibition of wild type KIT (unknown origin) using 33P-ATP as substrate incubated for 120 mins by radiometric kinase assay
Target sequence in this assay (P10721 whole entry): as the sequence (P10721 whole entry V559A) above, with A559V counted along it

[18] = Plasma clearance in Han Wistar rat at 0.2 mg/kg, iv and measured upto 24 hrs; assay type: ADME, organism-based
[19] = Half life in Cynomolgus monkey at 0.2 mg/kg, iv and measured upto 24 hrs; assay type: ADME, organism-based, Macaca fascicularis; conditions: in vivo
[20] = Octanol-water distribution coefficient, logD of the compound at pH 7.4; assay type: physicochemical
[21] = molecular target: T3, Platelet-derived growth factor receptor alpha (Homo sapiens, UniProt P16234); test: Inhibition of PDGFRA (unknown origin) at 1 uM using 33P-ATP as substrate incubated for 120 mins by radiometric kinase assay
T3 sequence (P16234 whole entry): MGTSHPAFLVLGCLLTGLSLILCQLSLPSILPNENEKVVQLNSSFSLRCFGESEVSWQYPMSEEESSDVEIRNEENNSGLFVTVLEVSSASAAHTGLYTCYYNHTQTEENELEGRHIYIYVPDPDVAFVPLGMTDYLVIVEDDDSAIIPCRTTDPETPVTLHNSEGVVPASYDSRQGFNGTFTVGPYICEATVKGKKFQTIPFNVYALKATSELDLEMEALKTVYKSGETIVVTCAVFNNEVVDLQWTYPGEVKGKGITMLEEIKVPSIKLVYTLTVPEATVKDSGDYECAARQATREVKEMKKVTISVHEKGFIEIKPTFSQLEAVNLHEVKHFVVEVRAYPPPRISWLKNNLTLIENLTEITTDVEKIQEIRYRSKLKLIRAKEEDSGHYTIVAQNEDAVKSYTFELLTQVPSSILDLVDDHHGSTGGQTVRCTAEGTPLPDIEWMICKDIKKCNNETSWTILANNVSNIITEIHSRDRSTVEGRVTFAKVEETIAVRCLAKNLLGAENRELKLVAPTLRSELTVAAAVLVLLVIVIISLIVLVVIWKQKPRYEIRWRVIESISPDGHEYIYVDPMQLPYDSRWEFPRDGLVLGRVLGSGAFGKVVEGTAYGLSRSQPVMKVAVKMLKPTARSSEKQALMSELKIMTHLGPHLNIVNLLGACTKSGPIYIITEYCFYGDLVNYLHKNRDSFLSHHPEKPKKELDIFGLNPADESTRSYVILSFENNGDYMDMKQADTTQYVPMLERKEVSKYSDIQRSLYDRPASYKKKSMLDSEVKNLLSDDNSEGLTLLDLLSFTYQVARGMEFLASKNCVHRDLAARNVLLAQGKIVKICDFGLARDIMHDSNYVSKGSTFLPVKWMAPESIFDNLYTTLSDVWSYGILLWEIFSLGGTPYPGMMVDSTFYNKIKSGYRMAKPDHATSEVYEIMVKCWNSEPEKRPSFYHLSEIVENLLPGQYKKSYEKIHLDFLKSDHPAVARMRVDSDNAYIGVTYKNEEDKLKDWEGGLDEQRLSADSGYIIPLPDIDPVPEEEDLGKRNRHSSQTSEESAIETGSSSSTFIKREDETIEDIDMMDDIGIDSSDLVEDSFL

[22] = Oral bioavailability in Beagle dog at 20 mg/kg and measured upto 24 hrs; assay type: ADME, organism-based, Canis lupus familiaris; conditions: in vivo
[23] = molecular target: T2, Mast/stem cell growth factor receptor Kit; test: Inhibition of wild type KIT (unknown origin) at 1 uM using 33P-ATP as substrate incubated for 120 mins by radiometric kinase assay
Target sequence in this assay (P10721 whole entry): as the sequence (P10721 whole entry V559A) above, with A559V counted along it

[24] = Half life in Beagle dog at 0.2 mg/kg, iv and measured upto 24 hrs; assay type: ADME, organism-based, Canis lupus familiaris; conditions: in vivo
[25] = Genotoxicity in Salmonella typhimurium by Ames test; assay type: toxicity; conditions: salmonella enterica subsp. enterica serovar typhimurium
[26] = molecular target: T3, Platelet-derived growth factor receptor alpha; test: Inhibition of PDGFRA (unknown origin) using 33P-ATP as substrate incubated for 120 mins by radiometric kinase assay
[27] = Volume of distribution at steady state in Beagle dog at 0.2 mg/kg, iv and measured upto 24 hrs; assay type: ADME, organism-based, Canis lupus familiaris; conditions: in vivo, read-out: Vdss
GIST430 = assay type: functional, cell-based; conditions: Homo sapiens, dose 10.0 µM
[28] = Plasma clearance in Cynomolgus monkey at 0.2 mg/kg, iv and measured upto 24 hrs; assay type: ADME, organism-based, Macaca fascicularis
[29] = Oral bioavailability in Cynomolgus monkey at 5 mg/kg and measured upto 24 hrs; assay type: ADME, organism-based, Macaca fascicularis; conditions: in vivo
[30] = Plasma clearance in Beagle dog at 0.2 mg/kg, iv and measured upto 24 hrs; assay type: ADME, organism-based, Canis lupus familiaris
[31] = molecular target: Mast/stem cell growth factor receptor Kit (Homo sapiens, UniProt P10721, N822K); test: Inhibition of KIT N822K mutant autophosphorylation in human Kasumi 1 cells harboring KIT N822K mutation in exon 17 incubated for 45 mins by Luminex-based bead assay; assay type: cell-based
[32] = Half life in CD-1 mouse at 0.2 mg/kg, iv and measured upto 24 hrs; assay type: ADME, organism-based; conditions: in vivo
[33] = molecular target: Platelet-derived growth factor receptor beta (Homo sapiens, UniProt P09619); test: Inhibition of PDGFRB (unknown origin) at 1 uM using 33P-ATP as substrate incubated for 120 mins by radiometric kinase assay
[34] = molecular target: T2, Mast/stem cell growth factor receptor Kit; assay type: cell-based; conditions: gist430
[35] = molecular target: T1, Tyrosine-protein kinase Lck; test: Inhibition of LCK (unknown origin) at 1 uM using 33P-ATP as substrate incubated for 120 mins by radiometric kinase assay
[36] = test system: Mast/stem cell growth factor receptor Kit (Homo sapiens), P10721 [UNDEFINED MUTATION]; test: Inhibition of recombinant human KIT (557 to 558 residues) activating deletion mutant in exon 11 using polyGT and ATP as substrate preincubated for 20 mins followed by substrate addition and measured after 240 mins by FRET assay; conditions: time 260.0 min
Sequence of Mast/stem cell growth factor receptor Kit (Homo sapiens), P10721 [UNDEFINED MUTATION] (P10721 whole entry, looked up, stated change not applied, the tested form may be a part): as the sequence (P10721 whole entry V559A) above, with A559V counted along it

## Cn1cc(-c2ccc(CNc3cc(-c4cnc5cc(OCCCN6CCCC6)ccn45)ncn3)cc2)cn1 [IDRX-42]
[1]
  inhibition: Active
GIST-430/654 [2]
  Activity: Active
[3]
  inhibition: Active
[4]
  pIC50: 6.85
[5]
  solubility: 374 µg/mL (≈ 735 µM)
GIST-430/654 [6]
  inhibition: Dose-Dependent Effect
[7]
  Activity: 65%
[8]
  pIC50: 7.32
[9]
  bioavailability: 46%
[10]
  Vd: 12.4 L/kg
[11]
  inhibition: > 80%
[12]
  efflux ratio at 2 h, 1 µM: 14
[13]
  clearance: 18.3 mL/min/kg
[14]
  inhibition: Active
[15]
  inhibition at 5 min, 10 µM: -86%
[16]
  Papp at 2 h, 1 µM: 5.7 ×10⁻⁶ cm/s
[17]
  pIC50: 7.36
[18]
  clearance: 36.7 mL/min/kg
[19]
  half-life: 4.4 h
[20]
  logD: 2.6
[21]
  inhibition: > 80%
[22]
  bioavailability: 80%
[23]
  inhibition: > 80%
[24]
  half-life: 9.6 h
[25]
  Activity: Non-Toxic
[26]
  pIC50: 7.30
[27]
  Vd: 34.6 L/kg
GIST430
  Activity: inactive
[28]
  clearance: 36.7 mL/min/kg
[29]
  bioavailability: 31%
[30]
  clearance: 36.7 mL/min/kg
[31]
  pIC50: 8.40
[32]
  half-life: 6.9 h
[33]
  inhibition: > 80%
[34]
  pIC50: 8.40
[35]
  inhibition: > 80%
[36]
  inhibition: Active
